This is an account of results in US9309248B2, “Azaindolines” (Hoffmann-La Roche Inc., priority 2012, dated 2016).

The target in one assay is T1, BIR2 domain of XIAP (Homo sapiens, UniProt P98170, C202A/C213G).
T1 construct: 6× Histidine-tagged BIR2 domain, corresponding to amino acids 124-240 of XIAP
Kind of assay: TR-FRET assay for BIR2 (inhibition of binding of XIAP BIR2 domain to SMAC-derived Peptide A). The settings on record: 6x Histidine-tagged BIR2 domain (amino acids 124-240 of XIAP) 10 nM, Peptide A 20 nM. Summed up:
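Inhibition of binding of the XIAP BIR2 domain (C202A/C213G) to biotinylated SMAC-derived Peptide A was measured. TR-FRET signal was read after 1 h at room temperature.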

For another assay, the target named is T2, BIR3 domain of XIAP (Homo sapiens, UniProt P98170).
T2 construct: BIR3 domain, corresponding to amino acids 241-356 of XIAP
In words: TR-FRET assay for BIR3 (inhibition of binding of XIAP BIR3 domain to SMAC-derived Peptide A). The note with it: 6x Histidine-tagged BIR3 domain (amino acids 241-356 of XIAP) 10 nM, Peptide A 20 nM. Summed up: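 His6-tagged XIAP BIR3 (aa 241-356, 10 nM) was mixed with 20 nM biotinylated SMAC-derived peptide in 50 mM Tris-Cl pH 7.5, 100 mM NaCl, 1 mM DTT, 0.1 mg/mL BSA and incubated 45 min at 37 °C. Eu-streptavidin (1.5 nM) and APC anti-His (15 nM) were added, with TR-FRET read 1 h later at RT. IC50 came from % inhibition over 10 serial concentrations.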

Where only a bound is given, the exact number is not on record here.

T1 sequence (P98170 with tags, fused parts or gaps C202A/C213G): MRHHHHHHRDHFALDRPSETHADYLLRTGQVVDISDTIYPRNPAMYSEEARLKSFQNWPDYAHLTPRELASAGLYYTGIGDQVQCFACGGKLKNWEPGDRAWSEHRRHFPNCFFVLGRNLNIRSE
T2 sequence (P98170 with tags, fused parts or gaps): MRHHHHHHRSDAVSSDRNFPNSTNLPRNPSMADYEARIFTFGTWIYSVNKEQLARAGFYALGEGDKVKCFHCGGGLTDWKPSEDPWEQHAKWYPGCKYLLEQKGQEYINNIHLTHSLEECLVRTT

In general, IC50 refers to the point on the concentration scale where inhibition reaches its midpoint. For `CC(C)[C@H](NC(=O)[C@H](C)NCCO)C(=O)N1c2ncccc2C[C@H]1C(=O)Nc1ccccc1` [Example 89, (S)-1-{(S)-2-[(S)-2-(2-Hydroxy-ethylamino)-propionylamino]-3-methyl-butyryl}-2,3-dihydro-1H-pyrrolo[2,3-b]pyridine-2-carboxylic acid phenylamide], the half-maximal inhibitory concentration (IC50) is 0.266 µM at BIR2 domain of XIAP and greater than 54.8 µM at BIR3 domain of XIAP.

For the molecule `CC[C@H](NCCO)C(=O)N[C@H](C(=O)N1c2ncccc2C[C@H]1C(=O)Nc1ccccc1)C(C)C` [Example 90, (S)-1-{(S)-2-[(S)-2-(2-Hydroxy-ethylamino)-butyrylamino]-3-methyl-butyryl}-2,3-dihydro-1H-pyrrolo[2,3-b]pyridine-2-carboxylic acid phenylamide], the IC50 on BIR2 domain of XIAP was 1.61 µM; at BIR3 domain of XIAP it was greater than 54.8 µM.

For the molecule `C[C@H](NCCO)C(=O)N[C@H](C(=O)N1c2ncccc2C[C@H]1C(=O)Nc1ccccc1)C1CCCCC1` [Example 91, (S)-1-{(S)-2-Cyclohexyl-2-[(S)-2-(2-hydroxy-ethylamino)-propionylamino]-acetyl}-2,3-dihydro-1H-pyrrolo[2,3-b]pyridine-2-carboxylic acid phenylamide], the half-maximal inhibitory concentration (IC50) is 0.155 µM at BIR2 domain of XIAP and greater than 54.8 µM at BIR3 domain of XIAP.

For `CC(C)[C@H](NC(=O)[C@H](C)NCCS(C)(=O)=O)C(=O)N1c2ncccc2C[C@H]1C(=O)Nc1c(F)cccc1F` [Example 92, (S)-1-{(S)-2-[(S)-2-(2-Methanesulfonyl-ethylamino)-propionylamino]-3-methyl-butyryl}-2,3-dihydro-1H-pyrrolo[2,3-b]pyridine-2-carboxylic acid (2,6-difluoro-phenyl)-amide], the IC50 is 2.57 µM at BIR2 domain of XIAP and greater than 54.8 µM at BIR3 domain of XIAP.

As for `CN[C@@H](C)C(=O)N[C@H](C(=O)N1c2ncccc2C[C@H]1C(=O)Nc1c(F)cccc1F)C1CCOCC1` [Example 94, (S)-1-[(S)-2-((S)-2-Methylamino-propionylamino)-2-(tetrahydro-pyran-4-yl)-acetyl]-2,3-dihydro-1H-pyrrolo[2,3-b]pyridine-2-carboxylic acid (2,6-difluoro-phenyl)-amide], the 50% inhibitory concentration (IC50) was 0.00979 µM on BIR2 domain of XIAP and greater than 54.8 µM on BIR3 domain of XIAP.

Take `CN[C@@H](C)C(=O)N[C@H](C(=O)N1c2ncccc2C[C@@H]1C(=O)Nc1c(F)cccc1F)C1CCOCC1` [Example 95, (R)-1-[(S)-2-((S)-2-Methylamino-propionylamino)-2-(tetrahydro-pyran-4-yl)-acetyl]-2,3-dihydro-1H-pyrrolo[2,3-b]pyridine-2-carboxylic acid (2,6-difluoro-phenyl)-amide]: the 50% inhibitory concentration (IC50) was 0.607 µM on BIR2 domain of XIAP and greater than 54.8 µM on BIR3 domain of XIAP.

In the case of `CN[C@@H](C)C(=O)N[C@@H](CCS(C)(=O)=O)C(=O)N1c2ncccc2C[C@H]1C(=O)Nc1ccccc1` [Example 96, 1-[(S)-4-Methanesulfonyl-2-((S)-2-methylamino-propionylamino)-butyryl]-2,3-dihydro-1H-pyrrolo[2,3-b]pyridine-2-carboxylic acid phenylamide], the figures for the half-maximal inhibitory concentration (IC50) on BIR2 domain of XIAP and on BIR3 domain of XIAP were 0.108 µM and greater than 54.8 µM, respectively.

On to `CN[C@@H](C)C(=O)N[C@@H](CCS(C)(=O)=O)C(=O)N1c2ncccc2C[C@@H]1C(=O)Nc1ccccc1` [Example 97, 1-[(S)-4-Methanesulfonyl-2-((S)-2-methylamino-propionylamino)-butyryl]-2,3-dihydro-1H-pyrrolo[2,3-b]pyridine-2-carboxylic acid phenylamide], for which the concentration for half-maximal inhibition (IC50) at BIR2 domain of XIAP was 3.06 µM; on BIR3 domain of XIAP, greater than 54.8 µM.

For `CN[C@@H](C)C(=O)N[C@H](C(=O)N1c2ncccc2C(C)C1C(=O)Nc1c(F)cccc1F)C(C)C` (stereo partly drawn) [Example 98, 3-Methyl-1-[(S)-3-methyl-2-((S)-2-methylamino-propionylamino)-butyryl]-2,3-dihydro-1H-pyrrolo[2,3-b]pyridine-2-carboxylic acid (2,6-difluoro-phenyl)-amide], the half-maximal inhibitory concentration (IC50) on BIR2 domain of XIAP is 0.017 µM; on BIR3 domain of XIAP, greater than 54.8 µM.

Take `CN[C@@H](C)C(=O)N[C@H](C(=O)N1c2ncccc2C[C@H]1C(=O)Nc1c(C)cccc1F)C1CCOCC1` [Example 99, (S)-1-[(S)-2-((S)-2-Methylamino-propionylamino)-2-(tetrahydro-pyran-4-yl)-acetyl]-2,3-dihydro-1H-pyrrolo[2,3-b]pyridine-2-carboxylic acid (2-fluoro-6-methyl-phenyl)-amide]: the IC50 was 0.0116 µM on BIR2 domain of XIAP and greater than 54.8 µM on BIR3 domain of XIAP.
